Test results as given in ChEMBL document CHEMBL3611975, “New carbocyclic N(6)-substituted adenine and pyrimidine nucleoside analogues with a bicyclo[2.2.1]heptane fragment as sugar moiety; synthesis, antiviral, anticancer activity and X-ray crystallography” (Bioorg Med Chem, 2015).

Key:
SW-620 = assay: Cytotoxicity against human SW620 cells assessed as growth at 10^-5 M relative to control
SR = assay: Cytotoxicity against human SR cells assessed as growth at 10^-5 M relative to control
SK-OV-3 = assay: Cytotoxicity against human SKOV3 cells assessed as growth at 10^-5 M relative to control
SF-268 = assay: Cytotoxicity against human SF268 cells assessed as growth at 10^-5 M relative to control
MDA-MB-435 = assay: Cytotoxicity against human MDA-MB-435 cells assessed as growth at 10^-5 M relative to control
[1] = Selectivity index, ratio of CTD50 for MDCK cells to EC50 for Influenza A virus (A/Puerto Rico/8/1934(H1N1)); format: toxicity, cell-based; settings: dog
MDA-MB-468 = assay: Cytotoxicity against human MDA-MB-468 cells assessed as growth at 10^-5 M relative to control
T47D = assay: Cytotoxicity against human T47D cells assessed as growth at 10^-5 M relative to control
OVCAR-8 = assay: Cytotoxicity against human OVCAR8 cells assessed as growth at 10^-5 M relative to control
SK-MEL-5 = assay: Cytotoxicity against human SK-MEL-5 cells assessed as growth at 10^-5 M relative to control
UO-31 = assay: Cytotoxicity against human UO31 cells assessed as growth at 10^-5 M relative to control
SK-MEL-28 = assay: Cytotoxicity against human SK-MEL-28 cells assessed as growth at 10^-5 M relative to control
HT-29 = assay: Cytotoxicity against human HT-29 cells assessed as growth at 10^-5 M relative to control
[2] = Cytotoxicity against African green monkey Vero cells assessed as cell viability after 72 hrs by MTT assay; format: cell-based; settings: chlorocebus sabaeus, read-out: CTD50
HL-60(TB) = assay: Cytotoxicity against human HL-60(TB) cells assessed as growth inhibition at 10^-5 M relative to control; format: functional; settings: read-out: GI
NCI-H23 = assay: Cytotoxicity against human NCI-H23 cells assessed as growth at 10^-5 M relative to control
HOP-62 = assay: Cytotoxicity against human HOP62 cells assessed as growth at 10^-5 M relative to control
OVCAR-5 = assay: Cytotoxicity against human OVCAR5 cells assessed as growth at 10^-5 M relative to control
LOX IMVI = assay: Cytotoxicity against human LOXIMVI cells assessed as growth at 10^-5 M relative to control
Malme-3M = assay: Cytotoxicity against human MALME-3M cells assessed as growth at 10^-5 M relative to control
ACHN = assay: Cytotoxicity against human ACHN cells assessed as growth at 10^-5 M relative to control
NCI/ADR-RES = assay: Cytotoxicity against human NCI/ADR-RES cells assessed as growth at 10^-5 M relative to control
HCT-15 = assay: Cytotoxicity against human HCT15 cells assessed as growth at 10^-5 M relative to control
A549 = assay: Cytotoxicity against human A549 cells assessed as growth at 10^-5 M relative to control
NCI-H322M = assay: Cytotoxicity against human NCI-H322M cells assessed as growth at 10^-5 M relative to control
Influenza A virus = assay: Antiviral activity against Influenza A virus (A/Puerto Rico/8/1934(H1N1)) infected in MDCK cells assessed as decrease in virus titer after 48 hrs by MTT assay; format: functional, organism-based
A498 = assay: Cytotoxicity against human A498 cells assessed as growth at 10^-5 M relative to control
M14 = assay: Cytotoxicity against human M14 cells assessed as growth at 10^-5 M relative to control
786-0 = assay: Cytotoxicity against human 786-0 cells assessed as growth at 10^-5 M relative to control
MOLT-4 = assay: Cytotoxicity against human MOLT4 cells assessed as growth at 10^-5 M relative to control
IGROV-1 = assay: Cytotoxicity against human IGROV1 cells assessed as growth at 10^-5 M relative to control
OVCAR-4 = assay: Cytotoxicity against human OVCAR4 cells assessed as growth at 10^-5 M relative to control
SNB-75 = assay: Cytotoxicity against human SNB75 cells assessed as growth at 10^-5 M relative to control
SN12C = assay: Cytotoxicity against human SN12C cells assessed as growth at 10^-5 M relative to control
OVCAR-3 = assay: Cytotoxicity against human OVCAR3 cells assessed as growth at 10^-5 M relative to control
RPMI-8226 = assay: Cytotoxicity against human RPMI8226 cells assessed as growth at 10^-5 M relative to control
K562 = assay: Cytotoxicity against human K562 cells assessed as growth at 10^-5 M relative to control
KM12 = assay: Cytotoxicity against human KM12 cells assessed as growth at 10^-5 M relative to control
CCRF-CEM = assay: Cytotoxicity against human CCRF-CEM cells assessed as growth at 10^-5 M relative to control
SK-MEL-2 = assay: Cytotoxicity against human SK-MEL-2 cells assessed as growth at 10^-5 M relative to control

COc1ccc(CCNc2ncnc3c2ncn3[C@H]2C[C@H]3[C@H](CO)[C@@H]2C[C@@H]3Cl)cc1
growth, % of control at 10 µM (SW-620): 108%
growth, % of control at 10 µM (SR): 86.7%
growth, % of control at 10 µM (SK-OV-3): 106%
growth, % of control at 10 µM (SF-268): 97.7%
growth, % of control at 10 µM (MDA-MB-435): 114%
selectivity ratio [1]: 22
growth, % of control at 10 µM (MDA-MB-468): 101%
growth, % of control at 10 µM (T47D): 66.1%
growth, % of control at 10 µM (OVCAR-8): 101%
growth, % of control at 10 µM (SK-MEL-5): 87%
growth, % of control at 10 µM (UO-31): 81%
growth, % of control at 10 µM (SK-MEL-28): 104%
growth, % of control at 10 µM (HT-29): 87.9%
CC50 at 72 h [2]: 14 µM
inhibition of growth at 10 µM (HL-60(TB)): 94.7%
growth, % of control at 10 µM (NCI-H23): 102%
growth, % of control at 10 µM (HOP-62): 107%
growth, % of control at 10 µM (OVCAR-5): 97.7%
growth, % of control at 10 µM (LOX IMVI): 96.7%
growth, % of control at 10 µM (Malme-3M): 98.2%
growth, % of control at 10 µM (ACHN): 97.7%
growth, % of control at 10 µM (NCI/ADR-RES): 86.5%
growth, % of control at 10 µM (HCT-15): 95.5%
growth, % of control at 10 µM (A549): 83.3%
growth, % of control at 10 µM (NCI-H322M): 89.2%
EC50 (Influenza A virus): 16 µM
growth, % of control at 10 µM (A498): 99.9%
growth, % of control at 10 µM (M14): 98.3%
growth, % of control at 10 µM (786-0): 101%
growth, % of control at 10 µM (MOLT-4): 103%
growth, % of control at 10 µM (IGROV-1): 98.7%
growth, % of control at 10 µM (OVCAR-4): 94.3%
growth, % of control at 10 µM (SNB-75): 92.8%
growth, % of control at 10 µM (SN12C): 102%
growth, % of control at 10 µM (OVCAR-3): 111%
growth, % of control at 10 µM (RPMI-8226): 82.5%
growth, % of control at 10 µM (K562): 82.8%
growth, % of control at 10 µM (KM12): 97%
growth, % of control at 10 µM (CCRF-CEM): 108%
growth, % of control at 10 µM (SK-MEL-2): 101%

CCOc1ncnc2c1ncn2[C@H]1C[C@H]2[C@H](CO)[C@@H]1C[C@@H]2Cl
growth, % of control at 10 µM (SW-620): 109%
growth, % of control at 10 µM (SR): 97.5%
growth, % of control at 10 µM (SK-OV-3): 128%
growth, % of control at 10 µM (SF-268): 98%
growth, % of control at 10 µM (MDA-MB-435): 106%
selectivity ratio [1]: > 5
growth, % of control at 10 µM (MDA-MB-468): 98.6%
growth, % of control at 10 µM (T47D): 103%
growth, % of control at 10 µM (OVCAR-8): 106%
growth, % of control at 10 µM (SK-MEL-5): 100%
growth, % of control at 10 µM (UO-31): 88.1%
growth, % of control at 10 µM (SK-MEL-28): 100%
growth, % of control at 10 µM (HT-29): 96.5%
CC50 at 72 h [2]: 208 µM
inhibition of growth at 10 µM (HL-60(TB)): 95.4%
growth, % of control at 10 µM (NCI-H23): 87.9%
growth, % of control at 10 µM (HOP-62): 106%
growth, % of control at 10 µM (OVCAR-5): 92.5%
growth, % of control at 10 µM (LOX IMVI): 90.9%
growth, % of control at 10 µM (Malme-3M): 96%
growth, % of control at 10 µM (ACHN): 99%
growth, % of control at 10 µM (NCI/ADR-RES): 90.8%
growth, % of control at 10 µM (HCT-15): 95.7%
growth, % of control at 10 µM (A549): 99%
growth, % of control at 10 µM (NCI-H322M): 89.9%
EC50 (Influenza A virus): 225 µM
growth, % of control at 10 µM (A498): 88.8%
growth, % of control at 10 µM (M14): 111%
growth, % of control at 10 µM (786-0): 108%
growth, % of control at 10 µM (MOLT-4): 111%
growth, % of control at 10 µM (IGROV-1): 95.4%
growth, % of control at 10 µM (OVCAR-4): 108%
growth, % of control at 10 µM (SNB-75): 83.1%
growth, % of control at 10 µM (SN12C): 108%
growth, % of control at 10 µM (OVCAR-3): 111%
growth, % of control at 10 µM (RPMI-8226): 121%
growth, % of control at 10 µM (K562): 101%
growth, % of control at 10 µM (KM12): 101%
growth, % of control at 10 µM (CCRF-CEM): 129%
growth, % of control at 10 µM (SK-MEL-2): 108%

OC[C@H]1[C@@H]2C[C@H](n3cnc4c(NCCc5ccccc5)ncnc43)[C@H]1C[C@@H]2Cl
growth, % of control at 10 µM (SW-620): 99.7%
growth, % of control at 10 µM (SR): 84.1%
growth, % of control at 10 µM (SK-OV-3): 103%
growth, % of control at 10 µM (SF-268): 101%
growth, % of control at 10 µM (MDA-MB-435): 99.7%
selectivity ratio [1]: 10
growth, % of control at 10 µM (MDA-MB-468): 89.4%
growth, % of control at 10 µM (T47D): 86.8%
growth, % of control at 10 µM (OVCAR-8): 95.7%
growth, % of control at 10 µM (SK-MEL-5): 73.9%
growth, % of control at 10 µM (UO-31): 73.8%
growth, % of control at 10 µM (SK-MEL-28): 107%
growth, % of control at 10 µM (HT-29): 95.3%
CC50 at 72 h [2]: 14 µM
inhibition of growth at 10 µM (HL-60(TB)): 120%
growth, % of control at 10 µM (NCI-H23): 93.2%
growth, % of control at 10 µM (HOP-62): 94.2%
growth, % of control at 10 µM (OVCAR-5): 104%
growth, % of control at 10 µM (LOX IMVI): 92.7%
growth, % of control at 10 µM (Malme-3M): 102%
growth, % of control at 10 µM (ACHN): 97.8%
growth, % of control at 10 µM (NCI/ADR-RES): 88.2%
growth, % of control at 10 µM (HCT-15): 81.7%
growth, % of control at 10 µM (A549): 92.6%
growth, % of control at 10 µM (NCI-H322M): 99.5%
EC50 (Influenza A virus): 15 µM
growth, % of control at 10 µM (A498): 95.5%
growth, % of control at 10 µM (M14): 101%
growth, % of control at 10 µM (786-0): 97%
growth, % of control at 10 µM (MOLT-4): 83.3%
growth, % of control at 10 µM (IGROV-1): 105%
growth, % of control at 10 µM (OVCAR-4): 93.6%
growth, % of control at 10 µM (SNB-75): 106%
growth, % of control at 10 µM (SN12C): 99.9%
growth, % of control at 10 µM (OVCAR-3): 110%
growth, % of control at 10 µM (RPMI-8226): 87.9%
growth, % of control at 10 µM (K562): 91.1%
growth, % of control at 10 µM (KM12): 102%
growth, % of control at 10 µM (CCRF-CEM): 87.6%
growth, % of control at 10 µM (SK-MEL-2): 97.2%
